Laboratory results: US6624185B2, “Diarylcycloalkyl derivatives, processes for their preparation and their use as pharmaceuticals” (Aventis Pharma Deutschland GmbH, priority 2001, dated 2003)
pEC50: −log10 of the molar value.

Molecular target: T1, human PPARα (Homo sapiens, UniProt Q07869)
T1 construct: expressed in transfected cells; host or cells: HEK (human embryo kidney) cells, stably transfected
T1 sequence (Q07869 1-468): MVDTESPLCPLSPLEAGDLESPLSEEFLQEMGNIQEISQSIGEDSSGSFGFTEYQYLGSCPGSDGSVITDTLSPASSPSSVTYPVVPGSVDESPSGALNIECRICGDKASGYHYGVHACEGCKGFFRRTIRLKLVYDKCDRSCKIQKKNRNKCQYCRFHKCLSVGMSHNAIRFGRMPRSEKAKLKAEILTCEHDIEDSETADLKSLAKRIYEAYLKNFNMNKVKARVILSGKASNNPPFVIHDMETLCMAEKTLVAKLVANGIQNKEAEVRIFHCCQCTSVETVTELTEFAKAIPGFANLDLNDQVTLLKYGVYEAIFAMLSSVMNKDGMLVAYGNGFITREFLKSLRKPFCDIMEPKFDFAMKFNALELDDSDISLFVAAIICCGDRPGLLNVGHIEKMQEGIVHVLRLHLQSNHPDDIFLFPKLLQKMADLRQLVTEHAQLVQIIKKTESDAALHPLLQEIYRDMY
Assay: PPARα reporter cell line assay (stably transfected HEK cells, luciferase readout, three-day test)
Assay type: cell-based
Conditions: agonist activity in stably transfected HEK PPARα reporter cell line, 24 h incubation, luciferase luminescence
Experimental: To analyze the effectiveness of substances which bind to human PPARα, activating it in agonistic manner, a stable transfected HEK cell line (HEK=human embryo kidney) designated here as “PPARα reporter cell line” is used.
The activity of PPARα agonists is determined in a three-day test, described below:
The PPARα reporter cell line is cultivated up to 80% confluence in DMEM medium (#41965-039, Life Technologies) with the following additives: 10% cs-FCS (fetal calf serum, #SH-30068.03, Hyclone), antibiotics (0.5 mg/ml of zeozin [#R250-01, Invitrogen], 0.5 mg/ml of G418 [#10131-019, Life Technologies], 1% penicillin streptomycin solution [#15140-031, Life Technologies]) and 2 mM of L-glutamine (#25030-032, Life Technologies). Cultivation is carried out in standard cell culture bottles (#33111, Becton Dickinson) in a cell culture incubator at 37° C. and 5% CO2. The 80% confluent cells are washed once with 30 ml of PBS (#141-090- 094, Life Technologies), treated with 2 ml of trypsin solution (#25300-054, Life Technologies) at 37° C. for 2 min, taken up in 5 ml of the medium described above and counted in a cell counter. After dilution to 500,000 cells/ml, in each case 100,000 cells are sown into each well of a 96-well microtiter plate having a clear plastic bottom (#3610, Corning Costar). The plates are incubated in a cell incubator at 37° C. and 5% CO2 for 24 h.
The PPARα agonists to be tested are dissolved in DMSO at a concentration of 10 mM. This stock solution is diluted in Phenol-Red-free DMEM medium (#21063-029, Life Technologies) to which 5% of cs-FCS (#SH-30068.03, Hyclone), 2 mM of L-glutamine (#25030-032, Life Technologies) and the antibiotics described above (zeozin, G418, penicillin and streptomycin) had been added.
Test substances are usually tested at 11 different concentrations (10 μM; 3.3 μM; 1 μM; 0.33 μM; 0,1 μM; 0.033 μM; 0.01 μM; 0.0033 μM; 0.001 μM; 0.00033 μM and 0.0001 μM). […] From each well, the medium of the PPARα reporter cell line sown on day 1 is completely removed by aspiration, and immediately, the test substances diluted in medium are added to the cells. Dilution and addition of the substances can be carried out using a robot (Beckman Biomek 2000). The end volume of the test substances diluted in medium is 100 μl per well of a 96-well plate. The DMSO concentration in the assay is always below 0.1% v/v to prevent cytotoxic effects of the solvent.
The test plates are incubated in an incubator at 37° C. and 5% CO2 for 24 h.
The PPARα receptor cells treated with the test substances are removed from the incubator and frozen at −20° C. for 1 h to improve cell lysis. After the plates have thawed (thawing at room temperature for at least 30 min), 50 μl of buffer 1 (Luc-Screen kit #LS1000, PE Biosystems Tropix) are pipetted into each well and the plates are then transferred into an apparatus for measuring luminescence, fitted with a pipetting unit (Luminoscan Ascent, LabSystems). The luciferase reaction in the measurement apparatus is started by pipetting 50 μl of buffer 2 (Luc-Screen kit #LS1000, PE Biosystems Tropix) into each well of the 96-well plate. Addition of buffer to the individual wells is carried out in defined and identical time intervals following the instructions of the manufacturer (LabSystems). All samples are measured exactly 16 min after addition of buffer 2. Measurement time is 10 sec per sample.
The crude data of the apparatus for measuring luminescence are exported into a Microsoft Excel file. Dose-activity curves and EC50 values are calculated using the program XL.Fit according to the instructions of the manufacturer (IDBS).

With Cc1cccc(COC[C@H]2CCC[C@@H](OCc3coc(-c4ccc(F)cc4)n3)C2)c1C(=O)O (racemic) [XXV, Rac-cis-2-{3-[2-(4-Fluorophenyl)oxazol4-ylmethoxy]cyclohexylmethoxymethyl}-6-methylbenzoic Acid] as the molecule, how does the pEC50 read?
The pEC50 was 7.89.

With “2-{3-[2-(4-Fluorophenyl)oxazola4-ylmethoxy]cyclohexyloxy}-6-methylbenzoic Acid [Example I]” as the molecule, how does the pEC50 read?
Its pEC50 is 9.00.

COc1cccc(-c2nc(COC3CCCC(OCc4cccc(C)c4C(=O)O)C3)c(C)o2)c1 (centres unmarked) [XXXIV, 2-{3-[2-(3-Methoxyphenyl)-5-methyloxazol4-ylmethoxy]cyclohexyloxymethyl}-6-methylbenzoic Acid] was tested. Which pEC50 did it give?
Its pEC50 is 9.09.

How did the pEC50 turn out when Cc1cccc(-c2nc(COC3CCCC(OCc4cccc(C)c4C(=O)O)C3)c(C)o2)c1 (centres unmarked) [XXXVIII, 2-{3-[2-(3-Methylphenyl)-5-methyloxazol-4-ylmethoxy]cyclohexyloxymethyl}-6-methylbenzoic Acid] was run?
The pEC50 was 9.24.

With Cc1cccc(CC[C@@H]2CCC[C@H](OCc3coc(-c4ccc(F)cc4)n3)C2)c1C(=O)O (racemic) [XXVIII, Rac-cis-2-(2-{3-[2-(4-Fluorophenyl)oxazol-4-ylmethoxy]cyclohexyl}ethyl)-6-methylbenzoic Acid] as the molecule, how does the pEC50 read?
Its pEC50 is 7.85.

With COc1ccc(-c2nc(COC3CCCC(OCc4cccc(C)c4C(=O)O)C3)c(C)o2)cc1OC (centres unmarked) [XLIII, 2-{3-[2-(3,4-Dimethoxyphenyl)-5-methyloxazol-4-ylmethoxy]cyclohexyloxymethyl}-6-methylbenzoic Acid] as the molecule, how does the pEC50 read?
The pEC50 was 9.24.

With Cc1cccc(COC2CCCC(OCc3nc(-c4cccc(Br)c4)oc3C)C2)c1C(=O)O (centres unmarked) [XXXII] as the molecule, how does the pEC50 read?
The pEC50 was 9.01.

With Cc1cccc(CC[C@H]2CCC[C@H](OCc3coc(-c4ccc(F)cc4)n3)C2)c1C(=O)O (racemic) [XXIX, Rac-trans-2-(2-{3-[2-(4-Fluorophenyl)oxazol4-ylmethoxy]cyclohexyl}ethyl)-6-methylbenzoic Acid] as the molecule, how does the pEC50 read?
The pEC50 was 7.49.

How did the pEC50 turn out when Cc1cccc(COC2CCCC(OCc3nc(-c4cccc(C#N)c4)oc3C)C2)c1C(=O)O (centres unmarked) [XLIV, 2-{3-[2-(3-Cyanophenyl)-5-methyloxazol-4-ylmethoxy]cyclohexyloxymethyl}-6-methylbenzoic Acid] was run?
The pEC50 was 9.03.

With Cc1cccc(COC2CCCC(OCc3nc(-c4cccc(Cl)c4)oc3C)C2)c1C(=O)O (centres unmarked) [XXXVI, 2-{3-[2-(3-Chlorophenyl)-5-methyloxazol4-ylmethoxy]cyclohexyloxymethyl}-6-methylbenzoic Acid] as the molecule, how does the pEC50 read?
The pEC50 was 9.21.

With Cc1ccccc1-c1nc(COC2CCCC(OCc3cccc(C)c3C(=O)O)C2)c(C)o1 (centres unmarked) [XLI, 2-{3-[2-(2-Methylphenyl)-5-methyloxazol-4-ylmethoxy]cyclohexyloxymethyl}-6-methylbenzoic Acid] as the molecule, how does the pEC50 read?
Its pEC50 is 9.22.
